# Laboratory results taken from patent US20190382396A1, “SALTS OF BICYCLO[1.1.1]PENTANE INHIBITORS OF DUAL LEUCINE ZIPPER (DLK) KINASE FOR THE TREATMENT OF DISEASE” (Board of Regents, The University of Texas System, priority 2018, published 2019).
# Like-named read-outs stand apart in the source and are kept apart here.
# Columns and labels:
# Type in all cases: physicochemical
# [1] = Polymorph formation of hydrogen fumarate salt 11 (slurry, anti-solvent, heat-cool); design: key to Observation 50° C. / observation rt / observation 60° C.: “s” = slurry; “c” = clear
# Method: Formation of polymorphs of the hydrogen fumarate salt 11 was examined. About 15 mg of hydrogen fumarate salt 11 was combined with 0.5 mL of a selected organic solvent in a vial. The mixture was stirred at 700 RPM at 50° C. for 2 days. If a solid precipitate was present, the solid precipitate was then removed by centrifugation (14,000 RPM, 5 min) and dried under vacuum at 30° C. (Method I). If a solid precipitate was not present, the solvent was removed by evaporation under vacuum at 30° C. (Method II). In either case, the resulting material was evaluated by XRPD.
# Polymorph formation was examined with a slurry method using various solvents. About 500 mg of hydrogen fumarate salt 11 was combined with 50 mL of DMSO and 1 mL DMF to afford a saturated solution. Anti-solvent (no more than 5x solution volume) chosen from EtOH, iPrOH, acetone, water, and EtOAc was added. In no case was a precipitate formed.
# Polymorph formation was further examined with a heat-cool method using various solvents. About 100 mg of hydrogen fumarate salt 11 was combined with 1 mL of a selected solvent. The mixture was stirred at 700 RPM for 4 hrs at 60° C., then allowed to cool to room temperature. The cycle was repeated twice. If a solid precipitate was present, the solid precipitate was then removed by centrifugation and dried under vacuum at 30° C. (Method I). If a solid precipitate was not present, the solvent was removed by evaporation (Method II). In either case, the resulting material was evaluated by XRPD.
# [2] = Solubility in physiologically relevant solutions (SGF, FaSSIF, FeSSIF); details: 25±0.5° C.; for solubility at 24 h: 25 °C, thermodynamic from solid
# Method: Solubility of the free base 1 and the selected salts 8, 9, 10, and 11 in physiologically relevant solutions were examined. For each material, aliquots were added to 2 ml vials containing 500 uL of either SGF, FaSSIF, or FeSSIF, which were then sealed. The mixtures were kept shaking by thermomixer at 700 rpm, 25±0.5° C. for 24 h to facilitate the dissolution and then centrifuged by 96-well plates at 3000 rpm for 2 min. The filter liquors were diluted with diluents (ACN/water, 50/50) and analyzed by HPLC.
# [3] = Stability (50° C., 40° C./75% RH, light; 1 week); details: for XRPD change? / purity: bulk, 1 week
# Method: The stability of the free base 1 and the selected salts 8, 9, 10, and 11 was evaluated. For each material, aliquots were set up at each of conditions (50° C., 40° C./75% RH, light) at given time points (initial and 1 week). PXRD diffractograms of the hydrogen fumarate salt 11 is shown in FIG. 17, with trace (a) showing the initial salt, trace (b) showing the salt after light treatment, trace (c) showing the salt after storage at 40° C. and 75% relative humidity for 1 week, and (d) showing the salt after storage at 50° C. for 1 week.
# [4] = Particle size distribution of hydrogen fumarate salt 11; details: for D-value: in µm (unit assumed)
# Method: VMD=[…]; STD=[…]; Duration=0.04; Copt=2.90.
# [5] = Thermogravimetric analysis / DSC weight loss; details: <120° C.
# Method: Differential scanning calorimetry (“DSC”) was performed with a TA Q2000 instrument, using approx 1 mg of sample in a crimped Al pan, heating from room temperature to 300° C. at a rate of 10° C./min.
# Thermogravimetric analysis (“TGA”) was performed with a TA Q5000 instrument, using approx 2-5 mg of sample in an open Pt pan, heating from room temperature to 300° C. at a rate of 10° C./min.
compound,measurement,setting,value
"CC(C)c1nc(-c2cnc(N)c(OC(F)(F)F)c2)cn1C12CC(N3CCOCC3)(C1)C2.O=C(O)/C=C/C(=O)O [Example 11, 5-(2-isopropyl-1-(3-morpholinobicyclo[1.1.1]pentan-1-yl)-1H-imidazol-4-yl)-3-(trifluoromethoxy)pyridin-2-amine hydrogen fumarate]",observation 60° C.,"[1]; heat-cool method, Acetone",s
same,observation rt,"[1]; heat-cool method, Acetone",s
same,observation 60° C.,"[1]; heat-cool method, EtOAc",s
same,observation rt,"[1]; heat-cool method, EtOAc",s
same,observation 60° C.,"[1]; heat-cool method, EtOH",s
same,observation rt,"[1]; heat-cool method, EtOH",s
same,XRPD results,"[1]; heat-cool method, THF",amorphous
same,observation 60° C.,"[1]; heat-cool method, THF",c
same,observation rt,"[1]; heat-cool method, THF",c
same,observation 60° C.,"[1]; heat-cool method, iPrOH",s
same,observation rt,"[1]; heat-cool method, iPrOH",s
same,Observation 50° C.,"[1]; slurry 50° C., 2 days, 1/1 (v/v) EtOH/H2O",c
same,Observation 50° C.,"[1]; slurry 50° C., 2 days, 1/1 (v/v) acetone/H2O",c
same,Observation 50° C.,"[1]; slurry 50° C., 2 days, Acetone",c
same,Observation 50° C.,"[1]; slurry 50° C., 2 days, CH2Cl2",s
same,Observation 50° C.,"[1]; slurry 50° C., 2 days, CH3CN",s
same,Observation 50° C.,"[1]; slurry 50° C., 2 days, Dioxane",c
same,Observation 50° C.,"[1]; slurry 50° C., 2 days, EtOAc",s
same,Observation 50° C.,"[1]; slurry 50° C., 2 days, EtOH",c
same,Observation 50° C.,"[1]; slurry 50° C., 2 days, H2O",s
same,Observation 50° C.,"[1]; slurry 50° C., 2 days, Heptane",s
same,Observation 50° C.,"[1]; slurry 50° C., 2 days, MeOH",c
same,XRPD pattern,"[1]; slurry 50° C., 2 days, MeOH",almost
same,Observation 50° C.,"[1]; slurry 50° C., 2 days, Toluene",s
same,Observation 50° C.,"[1]; slurry 50° C., 2 days, iPrOH",c
same,solubility at 24 h,"[2]; simulated gastric fluid, SGF, read-out: Solubility SGF Conc",5810 µg/mL
same,solubility at 24 h,"[2]; FaSSIF, read-out: Solubility FaSSIF Conc",459 µg/mL
same,solubility at 24 h,"[2]; FeSSIF, read-out: Solubility FeSSIF Conc",646 µg/mL
same,FaSSIF pH after 24 h,[2]; FaSSIF,4.85
same,FeSSIF pH after 24 h,[2]; FeSSIF,4.84
same,SGF pH after 24 h,[2]; SGF,3.01
same,XRPD change?,"[3]; 40° C., 75% RH",no
same,purity,"[3]; 40° C., 75% RH",99.88%
same,XRPD change?,[3]; 50° C.,no
same,purity,[3]; 50° C.,99.89%
same,initial purity,[3]; initial (before storage),99.85%
same,XRPD change?,[3]; light,no
same,purity,[3]; light,99.89%
same,PSD D90,[4]; 8500 mg scale-up batch,D90 = 43 uM
same,D-value,[4]; % level 5,1.20
same,D-value,[4]; % level 10,2.21
same,D-value,[4]; % level 15,3.64
same,D-value,[4]; % level 20,5.39
same,D-value,[4]; % level 25,7.16
same,D-value,[4]; % level 30,8.89
same,D-value,[4]; % level 35,10.58
same,D-value,[4]; % level 40,12.28
same,D-value,[4]; % level 45,14.04
same,D-value,[4]; % level 50,15.88
same,D-value,[4]; % level 55,17.79
same,D-value,[4]; % level 60,19.93
same,D-value,[4]; % level 65,22.30
same,D-value,[4]; % level 70,24.85
same,D-value,[4]; % level 75,28.06
same,D-value,[4]; % level 80,31.79
same,D-value,[4]; % level 85,36.34
same,D-value,[4]; % level 90,42.91
same,D-value,[4]; % level 95,54.73
same,"weight loss (TGA, %)",[5],0.11% (<120° C.)
